In US20240091314A1, “USE OF THYMOSIN ALPHA FOR THE TREATMENT OF SEPSIS” (SciClone Pharmaceuticals, Inc., priority 2012, published 2024):

How the values were obtained:
[1] = tested on: mHLA-DR (monocyte human leukocyte antigen-DR); experiment: ETASS trial: monocyte HLA-DR expression (% of positive monocytes); format: in vivo
Method: (§1) In the Tα1 group, patients received subcutaneous injections of 1.6 mg Tα1 (ZADAXIN™, SciClone Pharmaceuticals, Foster City, CA, USA) twice per day for five consecutive days, then once per day for two consecutive days. Prior to administration, the lyophilized powder is to be reconstituted with 1 ml of the provided diluent (sterile water for injection). After reconstitution, the final concentration of Tα1 is 1.6 mg/mL. In the control group, patients received subcutaneous injections of 1 mL normal saline twice per day for five consecutive days, then once per day for two consecutive days. According to trial protocol, therapy had to be started within 4 hrs after enrollment.
(§2) The primary efficacy end point was death from any cause and was assessed 28 days after the initiation of treatment assignment. Secondary outcomes included dynamic changes of Sequential Organ Failure Assessment (SOFA), CD 4+/CD8+ and monocyte human leukocyte antigen-DR (mHLA-DR) expression measured on day 0 (the day of enrollment), 3 and 7 in both groups. All mHLA-DR measurements were done in the center laboratory of the First Affiliated Hospital of Sun Yat-sen University. 1 ml unprocessed EDTA whole blood was stored on ice at once after drawing and was transferred to the center laboratory as soon as possible to guarantee measurement within 3 hrs after blood drawing. The method of measuring mHLA-DR was mentioned in our previous paper. Once patients were enrolled, data including demographic characteristics, microbiological findings (primary infection source and the identified microorganisms) and comorbidities were collected when available. The following clinical parameters were recorded on specific days after enrollment: on day 0, the severity as assessed by the Acute Physiology and Chronic Health Evaluation II (APACHE II); on day 0, 3, 7, SOFA, hematologic and biochemical findings, results of mHLA-DR, CD4+/CD8+ tests. The time of the first organ dysfunction was retrospectively estimated according to objective data such as blood gas analysis when the patient was enrolled.
(§3) Based on a previous study, a sample size of 334 patients was required to show a reduction in 28-day mortality rate from 50% to 35% by Tα1 treatment, with a two-sided test (a error=5%; power=80%). Considering a possible drop-out rate of 10%, the trial would need to enroll 368 patients in total. Demographic data, outcome data and other laboratory parameters were summarized by frequency for categorical variables and mean±standard deviation (SD) or median with interquartile range (IQR) for continuous variables. Proportions were compared with chi-square test or Fisher's exact test. Continuous variables were tested by means of t test with normal distribution or Wilcoxon rank-sum test with non-normal distribution. The comparison of primary outcome between two groups was performed by means of Cochran-Mantel-Haenszel test, in which patients were stratified on a number of baseline covariates such as mHLA-DR, scores of APACHE and SOFA, surgical and cancer history, sex and age. The corresponding relative risks (RRs) with 95% confidence intervals (Cis) were computed with logit-adjusted method. Kaplan-Meier estimates without adjustment for baseline covariates were used for survival time analysis, and log-rank tests for comparison. To estimate mean changes from baseline in laboratory parameters, linear mixed models for repeated measures were employed, taking into account the clustering of participating centers and repeated measurements within patients. This model included terms for baseline measurement, treatment group, visit, and treatment×visit interaction. Least-squares means with 95% CIs were reported. We also analyzed the efficacy parameters of the study drug in different prespecified subgroups. The heterogeneity of treatment effects among subgroups was assessed with use of interaction tests. […]

[2] = tested on: patients with severe sepsis; experiment: ETASS multicenter randomized controlled trial: mortality, prognosis and SOFA in severe sepsis; format: in vivo, human
Method: We did a prospective, controlled, single-blinded, multi-center randomized clinical trial, which was conducted in the ICUs of six tertiary, teaching hospitals. The ethics committee of the First Affiliated Hospital of Sun Yat-sen University approved the protocol (200815). Written informed consents were obtained from the patients or next of kin for patients unable to consent. The trial was registered with ClinicalTrials.gov, number NCT00711620.
From May 12, 2008 to Dec. 22, 2010 patients diagnosed with severe sepsis admitted to ICUs were enrolled in the trial. The criteria for severe sepsis were a modification of those defined by Bernard et al. (see Additional file 1).
To reduce the impact on the results from heterogeneity of severe sepsis and inter-hospital variation in patient sources as much as possible, stratification by investigative center in combination with computer-generated block randomization (block size=8) according to the sequence of recruitment was employed in the enrollment process. The method of randomization and block size were blinded until the data analysis was finished completely. Clinicians who enrolled the subjects were not involved in data collection. Eligible patients were randomly assigned in a 1:1 ratio in each hospital with four in each block assigned to receive the study drug and the other four to the control group after telephone verification through a randomization center. The allocation sequence was concealed from the researchers. To prevent advance knowledge of treatment assignment and subversion of the allocation sequence, trial entry sheet of the case report form (CRF) was filled out and informed consent was obtained before disclosing the unique participant number and the allocated group; the unique number generated could not be changed and deleted afterward. We used normal saline as placebo. Patients were blinded to the treatment assignments. All statistical analysis was done with masking maintained.
as §1
The treating physicians dictated patient care to current international guidelines, including adequate empiric antibiotic therapy based on current recommendations, ventilation regimen (pressure control mode), blood glucose control, resuscitation and hemodynamic support, organ support, sedation or analgesia as needed and adequate nutrition. Empirical antibiotic therapy was considered adequate when at least one effective drug was included in the empirical antibiotic treatment within the first 24 hrs of the admission to the ICU and the optimal dose and the correct route of administration were in accordance with medical standards and in ICU survivors without microbiologically detected microorganism in bloodstream or focus. When the empirical antibiotic therapy had to be changed after microbiological detection of microorganism, it was considered inadequate, whereas in non-survivors without microbiologically detected microorganism in bloodstream or focus it was considered not evaluable.
The primary efficacy end point was death from any cause and was assessed 28 days after the initiation of treatment assignment. […]

CD4+/CD8+ = experiment: ETASS trial: CD4+/CD8+ ratio; format: in vivo, human
Method: as §1, §2, §3

[3] = tested on: patients with severe sepsis; experiment: ETASS trial: safety and tolerability assessment; format: in vivo, human; settings: for drug-related serious/severe adverse events: assessed by the investigator
Method: as §1
Safety and tolerability assessment of Tα1 (see Additional file 3) was based on the comparison of all available information obtained from the two groups with respect to detected outliers in laboratory safety data, drug-related serious adverse events (assessed by the investigator) and deterioration of organ and system function (assessed by the individual SOFA component scoring for respiratory, cardiovascular, hepatic, coagulation, renal and nervous systems that arose during the treatment).

[4] = 1.6 mg s.c. twice per day 5 days, then once per day 2 days, n = 181
[5] = during the 28-day study period, n = 181

thymosin alpha 1 [Tα1]
mHLA-DR, Mean (95% CI) ([1]; Day 0 (day of enrollment)): 51.8% | mHLA-DR, Mean (95% CI) ([1]; Day 3): 59.8% | mHLA-DR, Mean (95% CI) ([1]; Day 7): 68.9% | mean difference in mHLA-DR changes between the two groups, day 3 ([1]; Tα1 group vs control group): 3.9% | mean difference in mHLA-DR changes between the two groups, day 7 ([1]; Tα1 group vs control group): 5.8% | mHLA-DR mean change from baseline ΔDay 3 ([1]; day 3 compared with day 0): 8.0% | mHLA-DR mean change from baseline ΔDay 7 ([1]; day 7 compared with day 0): 17.0% | 28-day mortality (death from any cause), number of patients [2, 4]: 47 | 28-day mortality (death from any cause), rate [2, 4]: 26.0% | 28-day mortality (death from any cause), rate ([2]; 1.6 mg s.c. twice per day 5 days, then once per day 2 days, n = 181, listed as Talpha1): 26.0% | 28-day mortality (death from any cause), rate ([2]; 1.6 mg s.c. twice per day 5 days, then once per day 2 days, n = 181, listed as TαI): (26.0%) | survival after enrollment vs control group (Kaplan-Meier, log rank) ([2]; 28 days, log rank P=0.049): survived longer | SOFA score, Mean (95% CI) ([2]; Day 0 (day of enrollment)): 7.9 | SOFA score, Mean (95% CI) ([2]; Day 3): 6.1 | SOFA score, Mean (95% CI) ([2]; Day 7): 5.3 | SOFA score ΔDay 3, between groups difference ([2]; Tα1 group vs control group): −0.5 | SOFA score ΔDay 7, between groups difference ([2]; Tα1 group vs control group): −0.7 | SOFA score change ΔDay 3 ([2]; day 3 compared with day 0): −1.8 | SOFA score change ΔDay 7 ([2]; day 7 compared with day 0): −2.5 | ICU-free days, Median (95% CI) [2, 5]: 10.0 days | Ventilation-free days, Median (95% CI) [2, 5]: 18.0 days | relative risk of death in hospital compared to the control group ([2]; in vivo): 0.73 | Duration of ventilation, Median (IQR) ([2]; n = 181): 7.0 | ICU stay, Median (IQR) ([2]; n = 181): 11.0 | In-ICU mortality, number of patients ([2]; n = 181): 35 | In-ICU mortality, rate ([2]; n = 181): (19.3%) | In-hospital mortality, number of patients ([2]; n = 181): 52 | In-hospital mortality, rate ([2]; n = 181): 28.7% | In-hospital mortality, rate ([2]; n = 181, listed as TαI): (28.7%) | relative risk of death, non-cancerous patients ([2]; non-cancerous patients): 0.91 | relative risk of death within 28 days as compared to the control group ([2]; non-stratified analysis): 0.74 | relative risk of death compared to the control group, subgroup of patients with cancer ([2]; patients with cancer): 0.46 | primary end point in prespecified subgroups (APACHE II, SOFA, mHLA-DR, surgery or cancer history, sex, age) ([2]; stratified analyses): tended to improve outcome but without statistical significance | absolute reduction in 28-day mortality ([2]; vs control group): 9.0% | decreasing tendency within 7 days in SOFA score ([2]; vs control group): seemed to favor the Tα1 group | difference between the two groups in ICU mortality, ventilation-free days, ICU-free days, length of ICU stay and duration of mechanical ventilation ([2]; vs control group): no significant difference | ratio of CD4+/CD8+ during the 7 days (CD4+/CD8+; 7 days): remained unchanged | CD4+/CD8+, Mean (95% CI) (CD4+/CD8+; Day 0 (day of enrollment)): 2.5 | CD4+/CD8+, Mean (95% CI) (CD4+/CD8+; Day 3): 2.7 | CD4+/CD8+, Mean (95% CI) (CD4+/CD8+; Day 7): 2.5 | CD4+/CD8+ ΔDay 3, between groups difference (CD4+/CD8+; Tα1 group vs control group): 0 | CD4+/CD8+ ΔDay 7, between groups difference (CD4+/CD8+; Tα1 group vs control group): 0.1 | CD4+/CD8+ change ΔDay 3 (CD4+/CD8+; day 3 compared with day 0): 0.3 | CD4+/CD8+ change ΔDay 7 (CD4+/CD8+; day 7 compared with day 0): 0.1 | drug-related serious/severe adverse events [3]: no Tα1-related severe adverse event (SAE) was reported | drug-related serious/severe adverse events ([3]; listed as Talpha1): No serious drug-related adverse event | drug-related serious/severe adverse events ([3]; listed as Thymosin alpha 1): not observed | patients with impairment (SOFA component score deterioration): Cardiovascular system, frequency in parentheses ([3]; during the treatment, n = 181): (15.5) | patients with impairment (SOFA component score deterioration): Cardiovascular system, number ([3]; during the treatment, n = 181): 28 | patients with impairment (SOFA component score deterioration): Coagulation system, frequency in parentheses ([3]; during the treatment, n = 181): (26.5) | patients with impairment (SOFA component score deterioration): Coagulation system, number ([3]; during the treatment, n = 181): 48 | patients with impairment (SOFA component score deterioration): Hepatic system, frequency in parentheses ([3]; during the treatment, n = 181): (11.6) | patients with impairment (SOFA component score deterioration): Hepatic system, number ([3]; during the treatment, n = 181): 21 | patients with impairment (SOFA component score deterioration): Nervous system, frequency in parentheses ([3]; during the treatment, n = 181): (7.7) | patients with impairment (SOFA component score deterioration): Nervous system, number ([3]; during the treatment, n = 181): 14 | patients with impairment (SOFA component score deterioration): Renal system, frequency in parentheses ([3]; during the treatment, n = 181): (14.4) | patients with impairment (SOFA component score deterioration): Renal system, number ([3]; during the treatment, n = 181): 26 | patients with impairment (SOFA component score deterioration): Respiratory system, frequency in parentheses ([3]; during the treatment, n = 181): (13.3) | patients with impairment (SOFA component score deterioration): Respiratory system, number ([3]; during the treatment, n = 181): 24 | difference vs control in frequency of outlying laboratory values and all-cause organ or system impairment ([3]; in vivo): no statistically significant differences | treatment discontinuation due to intolerance or adverse events ([3]; in vivo): no treatment was discontinued | patients with Hypoglycemia, frequency in parentheses ([3]; n = 181): (4.4) | patients with Hypoglycemia, number ([3]; n = 181): 8 | patients with outlying values: ALT (U/L), frequency in parentheses ([3]; n = 181): (21.0) | patients with outlying values: ALT (U/L), number ([3]; n = 181): 38 | patients with outlying values: AST (U/L), frequency in parentheses ([3]; n = 181): (23.8) | patients with outlying values: AST (U/L), number ([3]; n = 181): 43 | patients with outlying values: Creatinine (mmol/L), frequency in parentheses ([3]; n = 181): (9.9) | patients with outlying values: Creatinine (mmol/L), number ([3]; n = 181): 18 | patients with outlying values: Hemoglobin (g/L), frequency in parentheses ([3]; n = 181): (14.9) | patients with outlying values: Hemoglobin (g/L), number ([3]; n = 181): 27 | patients with outlying values: Platelets 10^3/mm^3), frequency in parentheses ([3]; n = 181): (37.0) | patients with outlying values: Platelets 10^3/mm^3), number ([3]; n = 181): 67
